The results in this text go back to ChEMBL document CHEMBL1123187, “3-Hydroxy-3-methylglutaryl-coenzyme A reductase inhibitors. 5. 6-(Fluoren-9-yl)- and 6-(fluoren-9-ylidenyl)-3,5-dihydroxyhexanoic acids and their lactone derivatives” (J Med Chem, 1986).

The target of the first assay is T1, 3-hydroxy-3-methylglutaryl-coenzyme A reductase (Rattus norvegicus) (UniProt P51639).
T1 sequence (whole entry): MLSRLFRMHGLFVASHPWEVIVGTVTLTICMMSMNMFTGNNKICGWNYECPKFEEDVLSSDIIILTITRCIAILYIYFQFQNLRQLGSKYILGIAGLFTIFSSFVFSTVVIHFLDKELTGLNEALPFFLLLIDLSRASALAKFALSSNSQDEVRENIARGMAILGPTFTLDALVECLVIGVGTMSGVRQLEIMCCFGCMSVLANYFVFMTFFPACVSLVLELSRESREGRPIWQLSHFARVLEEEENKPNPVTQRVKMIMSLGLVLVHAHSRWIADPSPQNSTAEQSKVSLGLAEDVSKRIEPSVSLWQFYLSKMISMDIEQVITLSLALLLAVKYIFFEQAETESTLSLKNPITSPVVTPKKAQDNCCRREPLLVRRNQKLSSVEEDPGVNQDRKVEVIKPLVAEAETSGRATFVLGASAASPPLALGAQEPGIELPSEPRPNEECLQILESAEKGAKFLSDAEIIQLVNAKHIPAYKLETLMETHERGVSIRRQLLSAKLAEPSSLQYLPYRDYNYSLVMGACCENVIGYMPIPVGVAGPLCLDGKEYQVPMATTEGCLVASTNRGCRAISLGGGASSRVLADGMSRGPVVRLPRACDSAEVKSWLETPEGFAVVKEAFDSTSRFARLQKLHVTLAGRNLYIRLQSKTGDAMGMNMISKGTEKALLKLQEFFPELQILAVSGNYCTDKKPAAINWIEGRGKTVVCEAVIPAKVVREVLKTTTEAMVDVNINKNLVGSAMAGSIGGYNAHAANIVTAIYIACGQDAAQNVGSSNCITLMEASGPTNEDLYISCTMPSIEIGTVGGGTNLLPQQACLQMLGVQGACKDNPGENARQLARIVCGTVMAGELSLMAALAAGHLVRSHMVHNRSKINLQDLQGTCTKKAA
Description: Compound was tested for its ability to inhibit solubilized, purified rat liver HMG-CoA reductase, relative to compactin(100).
`O=C1C[C@H](O)CC(CC2c3cc(F)ccc3-c3cc(Cl)cc(Cl)c32)O1` (stereo partly specified) displayed a Relative potency of 14.

The molecule `Cc1cc(C)c2c(c1)-c1ccccc1/C2=C\[C@@H]1C[C@@H](O)CC(=O)O1` came in with a Relative potency of 1.9.

The molecule `O=C1C[C@H](O)C[C@@H](C=C2c3ccccc3-c3ccccc32)O1` displayed a Relative potency of 1.5.

In the case of `Cc1cc(C)c2c(c1)-c1cc(C)cc(C)c1C2=C[C@@H]1C[C@@H](O)CC(=O)O1`, the Relative potency amounted to 1.7.

Another assay addresses T2, 3-hydroxy-3-methylglutaryl-coenzyme A reductase (Rattus norvegicus, UniProt P51639).
T2 sequence (P51639 whole entry): T1 sequence (whole entry)
Description: Compound was tested in vitro for its ability to inhibit rat liver HMG-CoA reductase.
Turning to `O=C1C[C@H](O)CC(CC2c3cc(F)ccc3-c3cc(Cl)cc(Cl)c32)O1` (stereo partly specified), the half-inhibitory concentration (IC50) (commonly the concentration that gives 50% inhibition) came out at 85 nM.

In turn, `Cc1cc(C)c2c(c1)-c1ccccc1/C2=C\[C@@H]1C[C@@H](O)CC(=O)O1` gave an IC50 of 750 nM.

Turning to `Cc1cc(C)c2c(c1)-c1cc(C)cc(C)c1C2=C[C@@H]1C[C@@H](O)CC(=O)O1`, half-maximal inhibition (IC50) required 830 nM.

The target of a further assay is T1, 3-hydroxy-3-methylglutaryl-coenzyme A reductase (Rattus norvegicus). Description: compound was tested for its ability to inhibit solubilized, purified rat liver HMG-CoA reductase, relative to compactin(100).
In the case of `O=C1C[C@H](O)C[C@@H](/C=C/c2c(Cl)cc(Cl)cc2-c2ccc(F)cc2)O1`, the Relative potency turned out to be 100.

The molecule `O=C1C[C@H](O)C[C@@H](/C=C/c2c(Cl)cc(Cl)cc2-c2ccccc2)O1` came in with a Relative potency of 26.

For `Cc1cc(C)cc(-c2cc(C)cc(C)c2/C=C/[C@@H]2C[C@@H](O)CC(=O)O2)c1`, the Relative potency was found to be 80.

Molecule `O=C1C[C@H](O)C[C@@H](/C=C/c2ccccc2-c2ccccc2)O1` came in with a Relative potency of 0.63.
